Measured values: US20230295234A1, “ANTIMICROBIAL PEPTIDOMIMETICS” (SPEXIS AG, priority 2020, published 2023)
Peptide text beside a SMILES is read from it.

Key:
[1] = test system: Klebsiella pneumoniae SSI3010; details: SSI3010
Procedure, shortened: (§1)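 Broth microdilution; cation-adjusted MHII; inoculum ~5×10^5 CFU/mL from 0.5 McFarland saline suspension; peptide two-fold serial dilutions; polysorbate 80 0.002% final; peptide stock 1 mg/mL in water.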

[2] = test system: Escherichia coli MCR-1 Af 45; details: MCR-1 Af 45
Procedure, shortened: as §1

[3] = test system: Escherichia coli ATCC 25922; details: ATCC 25922
Procedure, shortened: as §1

[4] = test system: human red blood cells (hRBC); experiment: Hemolysis of human red blood cells; assay type: cell-based; details: red cells of human, 1 h
Procedure, shortened: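 PBS-washed human red blood cells (20% v/v) were incubated with peptide at 200 μg/mL for 1 h at 37 °C with shaking. Supernatant OD was read at 540 nm after 8-fold dilution. Hemolysis is expressed as percent of the water control.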

Row | Compound | Klebsiella pneumoniae SSI3010 MIC [1] [µg/mL] | Escherichia coli MCR-1 Af 45 MIC [2] [µg/mL] | Escherichia coli ATCC 25922 MIC [3] [µg/mL] | Hemolysis at 0.2 g/L [4] [%]
1 | CC[C@H](C)[C@H](NC(=O)[C@@H](NC(=O)[C@@H]1CCCN1C(=O)[C@@H](NC(=O)[C@@H]1CCCN1C(=O)[C@H](CCCCN)NC(=O)CNCCN)C(C)C)[C@@H](C)CC)C(=O)N[C@@H](Cc1ccc(O)cc1)C(=O)N[C@H]1CSSC[C@@H](C(=O)N[C@@H](CCN)C(=O)N[C@@H](CCCNC(=N)N)C(=O)N[C@@H](Cc2ccc(O)cc2)C(=O)O)NC(=O)[C@H](CCCCN)NC(=O)[C@@H](CCN)NC(=O)[C@H]([C@@H](C)O)NC(=O)[C@H](CCN)NC(=O)[C@H](CCCNC(=N)N)NC(=O)[C@H](CC(N)=O)NC1=O [Example 96] (HELM PEPTIDE1{[NCCNCC(=O)[*:2]].K.P.V.P.I.I.Y.C.N.R.[Dab].T.[NCC[C@@H](N[*:1])C(=O)[*:2]].K.C.[Dab].R.Y}$PEPTIDE1,PEPTIDE1,9:R3-16:R3$$$V2.0) | 0.125 | 0.0625 | 0.0625 | 0
2 | CC[C@H](C)[C@H](NC(=O)[C@@H](NC(=O)[C@@H]1CCCN1C(=O)[C@@H](NC(=O)[C@@H]1CCCN1C(=O)[C@H](CCCCN)NC(=O)CNCCCCN)C(C)C)[C@@H](C)CC)C(=O)N[C@@H](Cc1ccc(O)cc1)C(=O)N[C@H]1CSSC[C@@H](C(=O)N[C@@H](CCN)C(=O)N[C@@H](CCCNC(=N)N)C(=O)N[C@@H](Cc2ccc(O)cc2)C(=O)O)NC(=O)[C@H](CCCCN)NC(=O)[C@@H](CCN)NC(=O)[C@H]([C@@H](C)O)NC(=O)[C@H](CCN)NC(=O)[C@H](CCCNC(=N)N)NC(=O)[C@H](CC(N)=O)NC1=O [Example 97] (HELM PEPTIDE1{[NCCCCNCC(=O)[*:2]].K.P.V.P.I.I.Y.C.N.R.[Dab].T.[NCC[C@@H](N[*:1])C(=O)[*:2]].K.C.[Dab].R.Y}$PEPTIDE1,PEPTIDE1,9:R3-16:R3$$$V2.0; N-terminus assumed) | ≤0.03125 | ≤0.03125 | ≤0.03125 | 0
3 | CC[C@H](C)[C@H](NC(=O)[C@@H](NC(=O)[C@@H]1CCCN1C(=O)[C@@H](NC(=O)[C@@H]1CCCN1C(=O)[C@H](CCCCN)NC(=O)CNCCCN)C(C)C)[C@@H](C)CC)C(=O)N[C@@H](Cc1ccc(O)cc1)C(=O)N[C@H]1CSSC[C@@H](C(=O)N[C@@H](CCN)C(=O)N[C@@H](CCCNC(=N)N)C(=O)N[C@@H](Cc2ccc(O)cc2)C(=O)O)NC(=O)[C@H](CCCCN)NC(=O)[C@@H](CCN)NC(=O)[C@H]([C@@H](C)O)NC(=O)[C@H](CCN)NC(=O)[C@H](CCCNC(=N)N)NC(=O)[C@H](CC(N)=O)NC1=O [Example 98] (HELM PEPTIDE1{[NCCCNCC(=O)[*:2]].K.P.V.P.I.I.Y.C.N.R.[Dab].T.[NCC[C@@H](N[*:1])C(=O)[*:2]].K.C.[Dab].R.Y}$PEPTIDE1,PEPTIDE1,9:R3-16:R3$$$V2.0) | 0.0625 | ≤0.03125 | ≤0.03125 | 0
4 | CC[C@H](C)[C@H](NC(=O)[C@@H](NC(=O)[C@@H]1CCCN1C(=O)[C@@H](NC(=O)[C@@H]1CCCN1C(=O)CN(CCN)C(=O)[C@@H](N)CCCCN)C(C)C)[C@@H](C)CC)C(=O)N[C@@H](Cc1ccc(O)cc1)C(=O)N[C@H]1CSSC[C@@H](C(=O)N[C@@H](CCN)C(=O)N[C@@H](CCCNC(=N)N)C(=O)N[C@@H](Cc2ccc(O)cc2)C(=O)O)NC(=O)[C@H](CCCCN)NC(=O)[C@@H](CCN)NC(=O)[C@H]([C@@H](C)O)NC(=O)[C@H](CCN)NC(=O)[C@H](CCCNC(=N)N)NC(=O)[C@H](CC(N)=O)NC1=O [Example 99] (HELM PEPTIDE1{K.[NCCN(CC(=O)[*:2])[*:1]].P.V.P.I.I.Y.C.N.R.[Dab].T.[NCC[C@@H](N[*:1])C(=O)[*:2]].K.C.[Dab].R.Y}$PEPTIDE1,PEPTIDE1,9:R3-16:R3$$$V2.0; N-terminus assumed) | 0.0625 | ≤0.03125 | ≤0.03125 | 0
5 | CC[C@H](C)[C@H](NC(=O)[C@@H](NC(=O)[C@@H]1CCCN1C(=O)[C@@H](NC(=O)[C@@H]1CCCN1C(=O)CN(CCCCN)C(=O)[C@@H](N)CCCCN)C(C)C)[C@@H](C)CC)C(=O)N[C@@H](Cc1ccc(O)cc1)C(=O)N[C@H]1CSSC[C@@H](C(=O)N[C@@H](CCN)C(=O)N[C@@H](CCCNC(=N)N)C(=O)N[C@@H](Cc2ccc(O)cc2)C(=O)O)NC(=O)[C@H](CCCCN)NC(=O)[C@@H](CCN)NC(=O)[C@H]([C@@H](C)O)NC(=O)[C@H](CCN)NC(=O)[C@H](CCCNC(=N)N)NC(=O)[C@H](CC(N)=O)NC1=O [Example 100] (HELM PEPTIDE1{K.[NCCCCN(CC(=O)[*:2])[*:1]].P.V.P.I.I.Y.C.N.R.[Dab].T.[NCC[C@@H](N[*:1])C(=O)[*:2]].K.C.[Dab].R.Y}$PEPTIDE1,PEPTIDE1,9:R3-16:R3$$$V2.0; N-terminus assumed) | 0.0625 | ≤0.03125 | 0.03125 | 0
6 | CC[C@H](C)[C@H](NC(=O)[C@@H](NC(=O)[C@@H]1CCCN1C(=O)[C@@H](NC(=O)[C@@H]1CCCN1C(=O)CN(CCCN)C(=O)[C@@H](N)CCCCN)C(C)C)[C@@H](C)CC)C(=O)N[C@@H](Cc1ccc(O)cc1)C(=O)N[C@H]1CSSC[C@@H](C(=O)N[C@@H](CCN)C(=O)N[C@@H](CCCNC(=N)N)C(=O)N[C@@H](Cc2ccc(O)cc2)C(=O)O)NC(=O)[C@H](CCCCN)NC(=O)[C@@H](CCN)NC(=O)[C@H]([C@@H](C)O)NC(=O)[C@H](CCN)NC(=O)[C@H](CCCNC(=N)N)NC(=O)[C@H](CC(N)=O)NC1=O [Example 101] (HELM PEPTIDE1{K.[NCCCN(CC(=O)[*:2])[*:1]].P.V.P.I.I.Y.C.N.R.[Dab].T.[NCC[C@@H](N[*:1])C(=O)[*:2]].K.C.[Dab].R.Y}$PEPTIDE1,PEPTIDE1,9:R3-16:R3$$$V2.0) | 0.0625 | 0.03125 | 0.0625 | 0
7 | CC[C@H](C)[C@H](NC(=O)CN(CCN)C(=O)[C@@H](NC(=O)[C@@H]1CCCN1C(=O)[C@H](CCCCN)NC(=O)[C@@H](N)CCCCN)C(C)C)C(=O)N[C@H](C(=O)N[C@@H](Cc1ccc(O)cc1)C(=O)N[C@H]1CSSC[C@@H](C(=O)N[C@@H](CCN)C(=O)N[C@@H](CCCNC(=N)N)C(=O)N[C@@H](Cc2ccc(O)cc2)C(=O)O)NC(=O)[C@H](CCCCN)NC(=O)[C@@H](CCN)NC(=O)[C@H]([C@@H](C)O)NC(=O)[C@H](CCN)NC(=O)[C@H](CCCNC(=N)N)NC(=O)[C@H](CC(N)=O)NC1=O)[C@@H](C)CC [Example 102, Lys-Lys-Pro-Val-Ndab-Ile-Ile-Tyr-Cys-Asn-Arg-Dab-Thr-^DDab-Lys-Cys-Dab-Arg-Tyr] (HELM PEPTIDE1{K.K.P.V.[NCCN(CC(=O)[*:2])[*:1]].I.I.Y.C.N.R.[Dab].T.[NCC[C@@H](N[*:1])C(=O)[*:2]].K.C.[Dab].R.Y}$PEPTIDE1,PEPTIDE1,9:R3-16:R3$$$V2.0) | 0.0625 | 0.0625 | 0.0625 | 0
8 | CC[C@H](C)[C@H](NC(=O)[C@@H](NC(=O)[C@@H]1CCCN1C(=O)[C@@H](NC(=O)[C@@H]1CCCN1C(=O)[C@H](CCCCN)NC(=O)[C@@H](N)CCCCN)C(C)C)[C@@H](C)CC)C(=O)N[C@@H](Cc1ccc(O)cc1)C(=O)N[C@H]1CSSC(C)(C)[C@@H](C(=O)N[C@@H](CCN)C(=O)N[C@@H](CCCNC(=N)N)C(=O)N[C@@H](Cc2ccc(O)cc2)C(=O)O)NC(=O)[C@H](CCCCN)NC(=O)[C@@H](CCN)NC(=O)[C@H]([C@@H](C)O)NC(=O)[C@H](CCN)NC(=O)[C@H](CCCNC(=N)N)NC(=O)[C@H](CC(N)=O)NC1=O [Example 103] (HELM PEPTIDE1{K.K.P.V.P.I.I.Y.C.N.R.[Dab].T.[NCC[C@@H](N[*:1])C(=O)[*:2]].K.[Pen].[Dab].R.Y}$PEPTIDE1,PEPTIDE1,9:R3-16:R3$$$V2.0) | 0.0625 | ≤0.03125 | ≤0.03125 | 0
9 | CC[C@H](C)[C@H](NC(=O)[C@@H](NC(=O)[C@@H]1CCCN1C(=O)[C@@H](NC(=O)[C@@H]1CCCN1C(=O)[C@H](CCCCN)NC(=O)[C@@H](N)CCCCN)C(C)C)[C@@H](C)CC)C(=O)N[C@@H](Cc1ccc(O)cc1)C(=O)N[C@H]1CSSC[C@@H](C(=O)N[C@@H](CCN)C(=O)N[C@@H](CCCNC(=N)N)C(=O)N[C@@H](Cc2ccc(O)cc2)C(=O)O)NC(=O)[C@H](CCCCN)NC(=O)[C@@H](CCN)NC(=O)[C@H]([C@@H](C)O)NC(=O)[C@H](CCN)NC(=O)CN(CCCNC(=N)N)C(=O)[C@H](CC(N)=O)NC1=O [Example 104] (HELM PEPTIDE1{K.K.P.V.P.I.I.Y.C.N.[N=C(N)NCCCN(CC(=O)[*:2])[*:1]].[Dab].T.[NCC[C@@H](N[*:1])C(=O)[*:2]].K.C.[Dab].R.Y}$PEPTIDE1,PEPTIDE1,9:R3-16:R3$$$V2.0; N-terminus assumed) | 0.125 | 0.125 | 0.25 | 0
